Four molecules from US7354754B2, “Microorganism sensitive to lysozyme” (National Institute of Advanced Industrial Science and …, priority 2002, dated 2008) can be followed below.

Holding throughout (format): cell-based
The subject of experiment [1] is Rhodococcus erythropolis wild type and mutant strain. The experiment can be described thus: Comparison of wild type and mutant strain for sensitivity to antibiotics. Particulars: determined similarly to the ampicillin test. The method, then:
The sensitivity of Rhodococcus erythropolis strain L-65 and L-88 to ampicillin was determined in the same manner as in Example 1. To explain more specifically, the bacterial cells of each strain were inoculated in LB medium and cultured with shaking at 30° C. A part of the culture solution was taken in the middle of logarithmic growth period and diluted with fresh LB medium so as to contain 1×10^5, 1×10^4, 1×10^3, 1×10^2, and […] cells in 10 μl of the LB medium. The diluted culture solutions thus prepared were dropped onto each of LB agar mediums containing lysozyme in concentrations of 15, 10, 1, and 0.1 μg/ml. After the mediums were cultured at 30° C. for 2 days and the presence or absence of bacterial cells grown on the mediums was checked. In this manner, the minimum growth inhibition concentration was determined (Table 2).

The subject of experiment [2] is Rhodococcus erythropolis strain L-88. The experiment in a line: Cell lysis with lysozyme for extraction of recombinant PIP protein, strain L-88. Particulars: lysozyme 1 mg/ml, 37° C., one hour, nondenaturation buffer.
Experiment [3] deals with Rhodococcus erythropolis strain JCM 3201. The experiment in a line: Minimum growth inhibition concentration on LB agar medium, strain JCM 3201. The note with it: strain JCM 3201 (wild type), 30° C., 2 days. The text has this: (§1) A microorganism of the genus Rhodococcus according to the present invention is a mutant microorganism of the genus Rhodococcus, which has a higher sensitivity to lysozyme than a wild-type microorganism of the genus Rhodococcus. The microorganism of the genus Rhodococcus is not limited to a specific species and includes Rhodococcus erythropolis, Rhodococcus fascians, and Rhodococcus opacus. The wild-type microorganism of the genus Rhodococcus refers to a microorganism belonging to the genus Rhodococcus and having no genetic mutation, for example, Rhodococcus erythropolis strain JCM 3201. More specifically, the microorganism of the genus Rhodococcus according to the present invention having a higher sensitivity to lysozyme is a mutant derived from a wild-type microorganism of the genus Rhodococcus as a parent strain, and having an increased sensitivity to lysozyme compared to the parent strain. The phrase “having an increased sensitivity to lysozyme” means that cell lysis may occur at a low lysozyme concentration. […] Alternatively, the degree of sensitivity to lysozyme can be determined by adding lysozyme to a predetermined concentration of a microorganism of the genus Rhodococcus, and monitoring a change in absorbence while culturing. […]

Experiment [4] shares this test system. The experiment in a line: Cell lysis with lysozyme for extraction of recombinant PIP protein, strain JCM 3201. The note with it: lysozyme 1 mg/ml, 37° C., one hour.
Experiment [5] has the same test system. The experiment can be described thus: Turbidity change of culture solution by addition of lysozyme, strain JCM 3201. The note with it: lysozyme 12.5 μg/ml added at OD600 about 0.2, LB medium, 30° C. The method, then: (§2) To 100 ml of LB medium, Rhodococcus erythropolis strain L-65 was inoculated and cultured with shaking at 30° C. The absorbence (OD600) of the culture solution was measured at an absorption wavelength of 600 nm every hour from the beginning of the logarithmic growth period. When OD600 reached about 0.2, the volume of the culture solution was divided into halves. To one of them, lysozyme was added to a final concentration of 12.5 μg/ml. No lysozyme was added to the other. While both solutions were further cultured continuously, the absorbence was measured. The growth profiles of Rhodococcus erythropolis strain L-65 culture solutions with Lysozyme (12.5 μg/ml) and without lysozyme were shown by absorbence at 600 nm. When OD600 reached about 0.2, lysozyme was added (Indicated by the arrow in the figure). […] This is considered because bacterial cell lysis was caused by lysozyme.
The same operation as in Example 2 was performed by use of Rhodococcus erythropolis strain JCM 3201. The growth profiles of culture solutions of Rhodococcus erythropolis strain JCM 3201 with lysozyme (12.5 μg/ml) and without lysozyme were shown by absorbence at 600 nm. When OD600 reached about 0.2, lysozyme was added (Indicated by the arrow in the figure).

For experiment [6], the system named is Rhodococcus erythropolis strain L-88. The experiment can be described thus: Turbidity change of culture solution by addition of lysozyme, strain L-88. The note with it: lysozyme 12.5 μg/ml added at OD600 about 0.2, LB medium, 30° C. The method, then:
as §2
The same operation as in Example 2 was performed by use of Rhodococcus erythropolis strain L-88. The growth profiles of culture solutions of Rhodococcus erythropolis strain L-88 with lysozyme (12.5 μg/ml) and without lysozyme were shown by absorbence at 600 nm. When OD600 reached about 0.2, lysozyme was added (Indicated by the arrow in the figure). […] This is considered because bacterial cell lysis was caused by lysozyme.

Experiment [7] deals with Rhodococcus erythropolis strain L-65. The experiment in a line: Turbidity change of culture solution by addition of lysozyme, strain L-65. The note with it: lysozyme 12.5 μg/ml added at OD600 about 0.2, LB medium, 30° C. The procedure: as §2
Experiment [8] concerns Rhodococcus erythropolis strain L-88. The experiment can be described thus: Minimum growth inhibition concentration on LB agar medium, strain L-88. Particulars: 30° C., 2 days.
From the text: as §1

Experiment [9] deals with Rhodococcus erythropolis strain L-65. The experiment in a line: Cell lysis with lysozyme for extraction of recombinant PIP protein, strain L-65. The note with it: lysozyme 1 mg/ml, 37° C., one hour, nondenaturation buffer. From the text: A plasmid (pHN170, Nakashima and Tamura: the full length sequence is represented by SEQ ID No: 2) was constructed such that it could self-replicate in a bacterial cell of Rhodococcus erythropolis and could be induced by thiostreptone to express a proline iminopeptidase (hereinafter referred to as “PIP”) protein (T. Tamura et al., FEBS Lett. 398, 101-105 (1996)) having a 6× histidine tag at the C terminal. This plasmid was introduced into Rhodococcus erythropolis strain L-65 by an electroporation method. Transformants were screened on LB agar medium containing tetracycline (20 μg/ml). The transformants were inoculated on 4 ml of LB medium containing tetracycline (8 μg/ml) and cultured with shaking at 30° C. until the absorbence at an absorption wavelength of 600 nm reached 0.8. The entire culture solution was added to 40 ml of LB medium containing thiostreptone (1 μg/ml) and cultured with rotation in a vaned flask for 16 hours. After PIP protein was induced to express, bacterial cells were centrifugally collected at 1,500×g for 15 minutes. […] As a result, a clear band was detected near the molecular weight (34.3 KDa), which was predicted from the amino acid sequence of the 6× histidine-fused PIP protein (FIG. 5). […]

The test system is the same in experiment [10]. The experiment can be described thus: Minimum growth inhibition concentration on LB agar medium, strain L-65. The note with it: 30° C., 2 days.
From the text: as §1

Turning to thiostreptone, the “Difference in sensitivity between wild type and mutant strain” value in [1] is recorded as “no significant difference was observed”.

“lysozyme: lysozyme derived from egg-white (manufactured by Sigma), cell-wall lytic enzyme”: the “Cell lysis by lysozyme treatment (PIP band in supernatant, SDS polyacrylamide gel electrophoresis)” value is “The same phenomenon as in the case of bacterial stain L-65 is considered” in experiment [2]; “cell lysis rarely takes place” in experiment [4] (strain JCM 3201, nondenaturation buffer, no ampicillin); “cell lysis takes place even in nondenaturation conditions” in experiment [4] (strain JCM 3201 treated with ampicillin 600 μg/ml for 2 hours before cell collection); “Cells were lysed completely” in experiment [9]. Further, the “Minimum growth-inhibiting lysozyme concentration” value was above 400 µg/mL in experiment [3] and 12.5 µg/mL in [8]. Also, the “Change of absorbence (OD600) of culture solution after addition of lysozyme” value is given as “the same tendency of growth was observed” in experiment [5], “a sharp decrease in absorbence was observed” in [6] and “a sharp decrease in absorbence was observed” in [7].

Regarding `CC1(C)S[C@@H]2[C@H](NC(=O)[C@H](N)c3ccccc3)C(=O)N2[C@H]1C(=O)O` [ampicillin, reference compound], the “Minimum growth-inhibiting ampicillin concentration” value came to 15 µg/mL in experiment [3], 1 µg/mL in [10] and 1 µg/mL in experiment [8].

Consider `O=C(N[C@H](CO)[C@H](O)c1ccc([N+](=O)[O-])cc1)C(Cl)Cl` [chloramphenicol], for which the “Difference in sensitivity between wild type and mutant strain” value in experiment [1] is recorded as “no significant difference was observed”.
